Results taken from PMC10600239, “Selective MCL-1 inhibitor ABBV-467 is efficacious in tumor models but is associated with cardiac troponin increases in patients” (Communications Medicine, 2023).
Where “and” joins values, the source holds several entries; their conditions need not be identical. Equal entries are not always repeated.

Test system: troponin
Assay: Troponin monitoring in phase 1 patients
Type: in vivo, human
Settings: for Troponin I, Local Lab: reference range 2.3 to 20 ng/L; for Troponin T: patient, normal range 0-0.014
Experimental: Blood samples for plasma ABBV-467 concentration analysis were collected on days 1, 2, 3, and 15–17 of cycle 1 as well as on days 1 of cycles for PK analysis. Plasma samples of ABBV-467 were quantified using a validated LC-tandem MS with a lower limit of detection of 3 ng/mL. ABBV-467 PK parameters were calculated using standard non-compartmental approaches with Phoenix, WinNonlin (Version 8.0, Certara). AE severity was graded according to the National Cancer Institute Common Terminology Criteria for Adverse Events v5.0 for up to 30 days after the last dose. Analyses of AEs will include only treatment-emergent AEs. Triplicate ECGs were performed on days 1, 2, 15, and 16 of cycle 1. […] An echocardiogram was performed at screening and day 1 of cycle 2 and cycle 6. […]
Creatine Phosphokinase and Troponin Enzymes
Blood samples will be collected on the days specified in Section 2 for analysis of creatine phosphokinase and troponin serum concentrations. Clinical significance of these enzymes will be evaluated within the […]
context of the study. Samples should also be obtained as clinically indicated in the opinion of the investigator.
Table 9. Creatine Phosphokinase and Troponin Sampling Times […]
4, 8, 24, and 48 hours post-EOI
4, 8, 24 and 48 hours post-EOI
Sample times are relative to ABBV-467 infusion. […]

[1] = of the 4 patients with elevations

SMILES: Cc1c(Cl)c2c(Cl)c(C)c1-c1c(-c3ccc(F)cc3)sc3ncnc(c13)O[C@@H](C(=O)O)Cc1cc(ccc1OCc1ccnc(-c3ccc(OC[C@H]4COCCO4)cc3)n1)OC[C@@H](CN1CCN(C)CC1)O2 [ABBV-467]
- Troponin I, Central Laboratory (Patient 1, C1D1, study day 1, reference range ≤ 0.04 ng/mL, Advia Centaur TnI-Ultra Assay): <0.03 ng/mL
- Troponin I, Central Laboratory (Patient 1, C1D2, study day 2, reference range ≤ 0.04 ng/mL): <0.03 ng/mL
- Troponin I, Central Laboratory (Patient 1, C1D15, study day 15, reference range ≤ 0.04 ng/mL): <0.03 ng/mL
- Troponin I, Central Laboratory (Patient 1, C1D16, study day 16, reference range ≤ 0.04 ng/mL): <0.03 ng/mL
- Troponin I, Central Laboratory (Patient 1, C1D17, study day 17, reference range ≤ 0.04 ng/mL): <0.03 ng/mL
- Troponin I, Central Lab (Patient 2, C1D1, study day 1, reference range ≤0.04 ng/mL): <0.03 ng/mL
- Troponin I, Central Lab (Patient 2, C1D2, study day 2, reference range ≤0.04 ng/mL): <0.03 ng/mL
- Troponin I, Central Lab (Patient 2, C1D3, study day 3, reference range ≤0.04 ng/mL): <0.03 ng/mL
- Troponin I, Central Lab (Patient 2, C1D8, study day 8, reference range ≤0.04 ng/mL): <0.03 ng/mL
- Troponin I, Central Lab (Patient 2, C1D16, study day 16, 4 hr postdose, reference range ≤0.04 ng/mL): 0.24 (4 hr postdose) ng/ml
- Troponin I, Central Lab (Patient 2, C1D16, study day 16, 8 hr postdose, reference range ≤0.04 ng/mL): <0.03 (8 hr postdose) ng/ml
- Troponin I, Central Lab (Patient 2, C1D17, study day 17, reference range ≤0.04 ng/mL): 0.15 ng/mL
- Troponin I, Central Lab (Patient 2, C1D18, study day 18, reference range ≤0.04 ng/mL): 0.08 ng/mL
- Troponin I, Local Lab (Patient 3, C1D1, study day 1, Beckman Coulter ACCESS high sensitivity Troponin I assay): 8.1 ng/L
- Troponin I, Central Lab (Patient 3, C1D1, study day 1, reference range ≤ 0.04 ng/mL): <0.03 ng/mL
- Troponin I, Local Lab (Patient 3, C1D2, study day 2): 7.3 ng/L
- Troponin I, Central Lab (Patient 3, C1D2, study day 2, reference range ≤ 0.04 ng/mL): <0.03 ng/mL
- Troponin I, Local Lab (Patient 3, C1D3, study day 3): 10.2 ng/L
- Troponin I, Central Lab (Patient 3, C1D3, study day 3, reference range ≤ 0.04 ng/mL): <0.03 ng/mL
- Troponin I, Local Lab (Patient 3, C1D4, study day 4): 7.4 ng/L
- Troponin I, Local Lab (Patient 3, C1D5, study day 5): 7.3 ng/L
- Troponin I, Local Lab (Patient 3, C1D9, study day 9): 7.8 ng/L
- Troponin I, Local Lab (Patient 3, C1D11, study day 11): 37.7 ng/L
- Troponin I, Local Lab (Patient 3, C1D12, study day 12): 27.2 ng/L
- Troponin I, Central Lab (Patient 3, C1D12, study day 12, reference range ≤ 0.04 ng/mL): 0.05 ng/mL
- Troponin I, Local Lab (Patient 3, C1D15 (No infusion; drug discontinued), study day 15): 16.5 ng/L
- Troponin I, Central Lab (Patient 4, C1D1, study day 1, 4hr postdose, reference range ≤ 0.04 ng/mL): <0.03 (4hr postdose) ng/ml
- Troponin I, Central Lab (Patient 4, C1D1, study day 1, 8hr postdose, reference range ≤ 0.04 ng/mL): <0.03 (8hr postdose) ng/ml
- Troponin I, Central Lab (Patient 4, C1D1, study day 1, predose, reference range ≤ 0.04 ng/mL): <0.03 (predose) ng/ml
- Troponin I, Central Lab (Patient 4, C1D2, study day 2, reference range ≤ 0.04 ng/mL): <0.03 ng/mL
- Troponin I, Central Lab (Patient 4, C1D3, study day 3, reference range ≤ 0.04 ng/mL): <0.03 ng/mL
- Troponin I, Central Lab (Patient 4, C1D15, study day 15, 4 hr postdose, reference range ≤ 0.04 ng/mL): 0.06 (4 hr postdose) ng/ml
- Troponin I, Central Lab (Patient 4, C1D15, study day 15, 8 hr postdose, reference range ≤ 0.04 ng/mL): 0.04 ( 8 hr postdose) ng/ml
- Troponin I, Central Lab (Patient 4, C1D15, study day 15, predose, reference range ≤ 0.04 ng/mL): 0.04 (predose) ng/ml
- Troponin I, Central Lab (Patient 4, C1D16, study day 16, reference range ≤ 0.04 ng/mL): 0.04 ng/mL
- Troponin I, Central Lab (Patient 4, C1D17, study day 17, reference range ≤ 0.04 ng/mL): 0.05 ng/mL
- Troponin I, Central Lab (Patient 4, C2D1, study day 29, postdose, reference range ≤ 0.04 ng/mL): <0.03 (postdose) ng/ml
- Troponin I, Central Laboratory (Patient 5, C1D1 4hr Post EOI, study day 1, reference range ≤0.04 ng/mL): <0.03 ng/mL
- Troponin I, Central Laboratory (Patient 5, C1D1 8hr post EOI, study day 1, reference range ≤0.04 ng/mL): <0.03 ng/mL
- Troponin I, Central Laboratory (Patient 5, C1D1 Predose, study day 1, reference range ≤0.04 ng/mL): <0.03 ng/mL
- Troponin I, Central Laboratory (Patient 5, C1D2 24h post EOI, study day 2, reference range ≤0.04 ng/mL): <0.03 ng/mL
- Troponin I, Central Laboratory (Patient 5, C1D3 48hr Post EOI, study day 3, reference range ≤0.04 ng/mL): <0.03 ng/mL
- Troponin I, Central Laboratory (Patient 5, C1D15 4hr Post EOI, study day 15, reference range ≤0.04 ng/mL): <0.03 ng/mL
- Troponin I, Central Laboratory (Patient 5, C1D15 8h post EOI, study day 15, reference range ≤0.04 ng/mL): <0.03 ng/mL
- Troponin I, Central Laboratory (Patient 5, C1D15 Predose, study day 15, reference range ≤0.04 ng/mL): <0.03 ng/mL
- Troponin I, Central Laboratory (Patient 5, C1D16 24h post EOI, study day 16, reference range ≤0.04 ng/mL): <0.03 ng/mL
- Troponin I, Central Laboratory (Patient 5, C1D17 48hr Post EOI, study day 17, reference range ≤0.04 ng/mL): <0.03 ng/mL
- Troponin I, Central Laboratory (Patient 6, C1D1 4hr Post EOI, study day 1, reference range ≤0.04 ng/mL): <0.03 ng/mL
- Troponin I, Central Laboratory (Patient 6, C1D1 8hr post EOI, study day 1, reference range ≤0.04 ng/mL): <0.03 ng/mL
- Troponin I, Central Laboratory (Patient 6, C1D1 Predose, study day 1, reference range ≤0.04 ng/mL): <0.03 ng/mL
- Troponin I, Central Laboratory (Patient 6, C1D2 24h post EOI, study day 2, reference range ≤0.04 ng/mL): <0.03 ng/mL
- Troponin I, Central Laboratory (Patient 6, C1D3 48hr Post EOI, study day 3, reference range ≤0.04 ng/mL): <0.03 ng/mL
- Troponin I, Central Laboratory (Patient 6, C1D15 4hr Post EOI, study day 15, reference range ≤0.04 ng/mL): <0.03 ng/mL
- Troponin I, Central Laboratory (Patient 6, C1D15 8h post EOI, study day 15, reference range ≤0.04 ng/mL): <0.03 ng/mL
- Troponin I, Central Laboratory (Patient 6, C1D15 Predose, study day 15, reference range ≤0.04 ng/mL): <0.03 ng/mL
- Troponin I, Central Laboratory (Patient 6, C1D16 24h post EOI, study day 16, reference range ≤0.04 ng/mL): <0.03 ng/mL
- Troponin I, Central Laboratory (Patient 6, C1D17 48hr Post EOI, study day 17, reference range ≤0.04 ng/mL): <0.03 ng/mL
- Troponin I, Central Laboratory (Patient 7, C1D1 4hr Post EOI, study day 1, reference range ≤0.04 ng/mL): <0.03 ng/mL
- Troponin I, Central Laboratory (Patient 7, C1D1 8hr post EOI, study day 1, reference range ≤0.04 ng/mL): <0.03 ng/mL
- Troponin I, Central Laboratory (Patient 7, C1D1 Predose, study day 1, reference range ≤0.04 ng/mL): <0.03 ng/mL
- Troponin I, Central Laboratory (Patient 7, C1D2 24h post EOI, study day 2, reference range ≤0.04 ng/mL): <0.03 ng/mL
- Troponin I, Central Laboratory (Patient 7, C1D3 48hr Post EOI, study day 3, reference range ≤0.04 ng/mL): <0.03 ng/mL
- Troponin I, Central Laboratory (Patient 7, C1D15 4hr Post EOI, study day 15, reference range ≤0.04 ng/mL): <0.03 ng/mL
- Troponin I, Central Laboratory (Patient 7, C1D15 8h post EOI, study day 15, reference range ≤0.04 ng/mL): <0.03 ng/mL
- Troponin I, Central Laboratory (Patient 7, C1D15 Predose, study day 15, reference range ≤0.04 ng/mL): <0.03 ng/mL
- Troponin I, Central Laboratory (Patient 7, C1D16 24h post EOI, study day 16, reference range ≤0.04 ng/mL): <0.03 ng/mL
- Troponin I, Central Laboratory (Patient 7, C1D17 48hr Post EOI, study day 17, reference range ≤0.04 ng/mL): <0.03 ng/mL
- Troponin I, Central Laboratory (Patient 8, C1D1 4hr Post EOI, study day 1, reference range ≤0.04 ng/mL): <0.03 ng/mL
- Troponin I, Central Laboratory (Patient 8, C1D1 8hr post EOI, study day 1, reference range ≤0.04 ng/mL): <0.03 ng/mL
- Troponin I, Central Laboratory (Patient 8, C1D1 Predose, study day 1, reference range ≤0.04 ng/mL): <0.03 ng/mL
- Troponin I, Central Laboratory (Patient 8, C1D2 24h post EOI, study day 2, reference range ≤0.04 ng/mL): <0.03 ng/mL
- Troponin I, Central Laboratory (Patient 8, C1D3 48hr Post EOI, study day 3, reference range ≤0.04 ng/mL): <0.03 ng/mL
- Troponin I, Central Laboratory (Patient 8, C1D15 4hr Post EOI, study day 15, reference range ≤0.04 ng/mL): <0.03 ng/mL
- Troponin I, Central Laboratory (Patient 8, C1D15 8h post EOI, study day 15, reference range ≤0.04 ng/mL): <0.03 ng/mL
- Troponin I, Central Laboratory (Patient 8, C1D15 Predose, study day 15, reference range ≤0.04 ng/mL): <0.03 ng/mL
- Troponin I, Central Laboratory (Patient 8, C1D16 24h post EOI, study day 16, reference range ≤0.04 ng/mL): <0.03 ng/mL
- Troponin I, Central Laboratory (Patient 8, C1D17 48hr Post EOI, study day 17, reference range ≤0.04 ng/mL): 0.03 ng/mL
- relation of grade ≥1 elevated troponin to peak plasma concentration and AUC (across the studied dose range): unrelated
- patients with troponin elevations (all doses, N = 8): 4 (50%) patients (%)
- patients with troponin elevations (dose 0.32 mg/kg): 1 (12.5%) patients (%)
- first blood draw post-infusion at which troponin elevations were detectable (human, in vivo): 4 h
- patients with grade 1 troponin elevation [1]: 3 (75%) patients (%)
- patients with grade 3 troponin elevation [1]: 1 (25%) patients (%)
- Troponin T (LBDY 1): 0.011 µg/L
- Troponin T (LBDY 9): 0.021 µg/L
- Troponin T (LBDY 11): 0.038 µg/L
- Troponin T (LBDY 12): 0.032 µg/L
- Troponin T (LBDY 15): 0.018 µg/L and 0.019 µg/L
- Troponin T (LBDY 16): 0.021 µg/L
- Troponin T (LBDY 17): 0.024 µg/L
- Troponin T (LBDY 18): 0.027 µg/L
- Troponin T (LBDY 19): 0.025 µg/L
- Troponin T (LBDY 22): 0.015 µg/L
- Troponin T (LBDY 23): 0.019 µg/L
- Troponin T (LBDY 25): 0.024 µg/L
- Troponin T (LBDY 26): 0.019 µg/L
- Troponin T (LBDY 30 (Note: 29)): 0.021 µg/L
- Troponin T (LBDY 36 (Note: missing)): 0.018 µg/L
- Troponin T (LBDY 61 (Note: missing)): 0.016 µg/L
- troponin I, grade 3 elevation, multiple of upper limit of normal (single patient): 1.9 × upper limit of normal
